Molecules are shown by their SMILES. Bounds are passed on as bounds.

Assay [1] addresses Glycogen synthase kinase-3 beta (Homo sapiens, UniProt P49841).
Description: Inhibition of GSK3-beta after 1 hr
Assay [2] deals with Serine/threonine-protein kinase PAK 4 (Homo sapiens, UniProt O96013). Kind of assay: Inhibition of Pak4 after 1 hr using biotinylated L15 peptide as substrate.
Assay [3] addresses Rho-associated protein kinase 2 (Homo sapiens, UniProt O75116). Briefly: Inhibition of Rock2 after 1 hr using biotinylated longS peptide as substrate.
Assay [4] has as its target Serine/threonine-protein kinase pim-1 (Homo sapiens, UniProt P11309). Briefly: Inhibition of Pim1 after 1 hr using biotinylated AL1peptide as substrate.
The target of assay [5] is Vascular endothelial growth factor receptor 2 (Homo sapiens, UniProt P35968). Briefly: Inhibition of KDR after 1 hr.
Sequence of Vascular endothelial growth factor receptor 2 (P35968 whole entry): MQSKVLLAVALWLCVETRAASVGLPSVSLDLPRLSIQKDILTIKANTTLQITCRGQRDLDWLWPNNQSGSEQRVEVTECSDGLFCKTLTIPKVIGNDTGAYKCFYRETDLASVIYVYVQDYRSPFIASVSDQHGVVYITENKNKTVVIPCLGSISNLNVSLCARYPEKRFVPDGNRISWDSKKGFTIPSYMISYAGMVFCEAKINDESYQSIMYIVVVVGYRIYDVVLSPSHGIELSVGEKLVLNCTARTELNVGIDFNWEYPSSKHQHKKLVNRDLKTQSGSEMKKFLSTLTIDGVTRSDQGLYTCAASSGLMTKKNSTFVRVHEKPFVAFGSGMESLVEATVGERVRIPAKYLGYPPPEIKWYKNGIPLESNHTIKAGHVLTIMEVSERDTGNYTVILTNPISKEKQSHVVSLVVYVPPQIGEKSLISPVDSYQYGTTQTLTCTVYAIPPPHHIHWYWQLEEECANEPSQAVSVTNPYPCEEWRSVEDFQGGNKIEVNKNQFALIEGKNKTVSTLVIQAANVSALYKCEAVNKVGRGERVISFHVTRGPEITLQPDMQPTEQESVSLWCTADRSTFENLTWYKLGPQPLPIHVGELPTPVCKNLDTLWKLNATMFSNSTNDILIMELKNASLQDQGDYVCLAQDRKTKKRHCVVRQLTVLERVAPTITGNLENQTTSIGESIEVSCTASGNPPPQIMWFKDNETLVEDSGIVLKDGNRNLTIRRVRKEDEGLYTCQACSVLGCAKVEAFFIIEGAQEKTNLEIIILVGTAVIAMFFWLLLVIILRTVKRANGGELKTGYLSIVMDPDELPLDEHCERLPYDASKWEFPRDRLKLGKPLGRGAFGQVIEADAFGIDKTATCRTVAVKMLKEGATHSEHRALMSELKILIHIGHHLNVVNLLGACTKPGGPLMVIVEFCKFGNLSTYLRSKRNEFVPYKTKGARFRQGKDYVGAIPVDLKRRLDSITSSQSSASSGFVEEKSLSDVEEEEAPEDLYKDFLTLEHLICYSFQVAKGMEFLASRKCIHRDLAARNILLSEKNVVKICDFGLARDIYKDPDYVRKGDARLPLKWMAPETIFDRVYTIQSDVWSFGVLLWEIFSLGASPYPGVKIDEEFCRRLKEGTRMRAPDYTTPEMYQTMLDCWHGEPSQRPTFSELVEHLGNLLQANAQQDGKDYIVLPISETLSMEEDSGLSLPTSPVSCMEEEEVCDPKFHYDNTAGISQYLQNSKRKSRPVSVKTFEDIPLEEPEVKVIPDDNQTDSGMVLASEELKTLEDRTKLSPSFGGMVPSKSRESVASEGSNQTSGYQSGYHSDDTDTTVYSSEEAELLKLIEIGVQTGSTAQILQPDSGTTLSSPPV
The target of assay [6] is Tyrosine-protein kinase JAK2 (Homo sapiens, UniProt O60674). Kind of assay: Inhibition of JAK2 after 1 hr using biotinylated PDKtide as substrate.
The target of assay [7] is Epidermal growth factor receptor (Homo sapiens, UniProt P00533).
Sequence of Epidermal growth factor receptor (P00533 whole entry): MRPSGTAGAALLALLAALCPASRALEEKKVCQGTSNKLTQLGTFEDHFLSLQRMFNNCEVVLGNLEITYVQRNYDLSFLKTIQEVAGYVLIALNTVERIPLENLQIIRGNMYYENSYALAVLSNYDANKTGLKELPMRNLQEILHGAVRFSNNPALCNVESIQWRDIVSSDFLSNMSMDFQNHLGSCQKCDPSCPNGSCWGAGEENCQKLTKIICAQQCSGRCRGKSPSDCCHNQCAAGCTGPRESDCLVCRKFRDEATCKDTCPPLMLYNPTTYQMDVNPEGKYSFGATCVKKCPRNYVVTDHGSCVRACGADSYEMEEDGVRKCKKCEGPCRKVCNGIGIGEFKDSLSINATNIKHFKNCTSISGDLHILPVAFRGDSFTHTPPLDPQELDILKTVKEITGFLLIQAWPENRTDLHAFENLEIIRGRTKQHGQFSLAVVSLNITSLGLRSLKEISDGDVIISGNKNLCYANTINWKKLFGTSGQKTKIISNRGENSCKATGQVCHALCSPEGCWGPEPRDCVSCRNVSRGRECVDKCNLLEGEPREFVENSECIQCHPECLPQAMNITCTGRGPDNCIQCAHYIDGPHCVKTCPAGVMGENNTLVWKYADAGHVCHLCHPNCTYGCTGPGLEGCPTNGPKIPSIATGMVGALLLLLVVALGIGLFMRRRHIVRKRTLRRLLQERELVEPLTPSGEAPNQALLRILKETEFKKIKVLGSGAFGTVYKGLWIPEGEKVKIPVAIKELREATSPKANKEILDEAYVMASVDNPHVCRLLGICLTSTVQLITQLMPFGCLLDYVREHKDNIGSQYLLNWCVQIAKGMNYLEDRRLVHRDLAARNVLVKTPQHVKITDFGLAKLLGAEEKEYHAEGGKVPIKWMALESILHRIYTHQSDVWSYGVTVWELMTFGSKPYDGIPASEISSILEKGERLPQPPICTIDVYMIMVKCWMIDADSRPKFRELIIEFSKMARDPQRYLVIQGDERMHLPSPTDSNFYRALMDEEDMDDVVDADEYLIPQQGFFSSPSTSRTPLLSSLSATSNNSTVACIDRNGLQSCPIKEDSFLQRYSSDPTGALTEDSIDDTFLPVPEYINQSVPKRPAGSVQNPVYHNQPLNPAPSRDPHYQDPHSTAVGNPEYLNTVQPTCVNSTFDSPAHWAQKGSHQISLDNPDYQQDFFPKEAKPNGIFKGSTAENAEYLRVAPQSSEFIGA
Description: Inhibition of EGFR after 1 hr

Sequence of Glycogen synthase kinase-3 beta (P49841 whole entry): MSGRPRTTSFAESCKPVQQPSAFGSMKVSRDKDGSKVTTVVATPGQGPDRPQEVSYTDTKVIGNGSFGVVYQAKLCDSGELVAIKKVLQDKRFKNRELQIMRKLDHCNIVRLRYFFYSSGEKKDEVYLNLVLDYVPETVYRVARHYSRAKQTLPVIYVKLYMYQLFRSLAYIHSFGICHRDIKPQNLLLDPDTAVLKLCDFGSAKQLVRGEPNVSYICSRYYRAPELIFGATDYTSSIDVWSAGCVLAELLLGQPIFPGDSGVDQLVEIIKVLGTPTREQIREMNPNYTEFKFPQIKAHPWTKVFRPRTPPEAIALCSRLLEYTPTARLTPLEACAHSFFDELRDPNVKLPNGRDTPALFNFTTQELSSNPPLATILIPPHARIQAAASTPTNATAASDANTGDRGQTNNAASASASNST
Sequence of Rho-associated protein kinase 2 (O75116 whole entry): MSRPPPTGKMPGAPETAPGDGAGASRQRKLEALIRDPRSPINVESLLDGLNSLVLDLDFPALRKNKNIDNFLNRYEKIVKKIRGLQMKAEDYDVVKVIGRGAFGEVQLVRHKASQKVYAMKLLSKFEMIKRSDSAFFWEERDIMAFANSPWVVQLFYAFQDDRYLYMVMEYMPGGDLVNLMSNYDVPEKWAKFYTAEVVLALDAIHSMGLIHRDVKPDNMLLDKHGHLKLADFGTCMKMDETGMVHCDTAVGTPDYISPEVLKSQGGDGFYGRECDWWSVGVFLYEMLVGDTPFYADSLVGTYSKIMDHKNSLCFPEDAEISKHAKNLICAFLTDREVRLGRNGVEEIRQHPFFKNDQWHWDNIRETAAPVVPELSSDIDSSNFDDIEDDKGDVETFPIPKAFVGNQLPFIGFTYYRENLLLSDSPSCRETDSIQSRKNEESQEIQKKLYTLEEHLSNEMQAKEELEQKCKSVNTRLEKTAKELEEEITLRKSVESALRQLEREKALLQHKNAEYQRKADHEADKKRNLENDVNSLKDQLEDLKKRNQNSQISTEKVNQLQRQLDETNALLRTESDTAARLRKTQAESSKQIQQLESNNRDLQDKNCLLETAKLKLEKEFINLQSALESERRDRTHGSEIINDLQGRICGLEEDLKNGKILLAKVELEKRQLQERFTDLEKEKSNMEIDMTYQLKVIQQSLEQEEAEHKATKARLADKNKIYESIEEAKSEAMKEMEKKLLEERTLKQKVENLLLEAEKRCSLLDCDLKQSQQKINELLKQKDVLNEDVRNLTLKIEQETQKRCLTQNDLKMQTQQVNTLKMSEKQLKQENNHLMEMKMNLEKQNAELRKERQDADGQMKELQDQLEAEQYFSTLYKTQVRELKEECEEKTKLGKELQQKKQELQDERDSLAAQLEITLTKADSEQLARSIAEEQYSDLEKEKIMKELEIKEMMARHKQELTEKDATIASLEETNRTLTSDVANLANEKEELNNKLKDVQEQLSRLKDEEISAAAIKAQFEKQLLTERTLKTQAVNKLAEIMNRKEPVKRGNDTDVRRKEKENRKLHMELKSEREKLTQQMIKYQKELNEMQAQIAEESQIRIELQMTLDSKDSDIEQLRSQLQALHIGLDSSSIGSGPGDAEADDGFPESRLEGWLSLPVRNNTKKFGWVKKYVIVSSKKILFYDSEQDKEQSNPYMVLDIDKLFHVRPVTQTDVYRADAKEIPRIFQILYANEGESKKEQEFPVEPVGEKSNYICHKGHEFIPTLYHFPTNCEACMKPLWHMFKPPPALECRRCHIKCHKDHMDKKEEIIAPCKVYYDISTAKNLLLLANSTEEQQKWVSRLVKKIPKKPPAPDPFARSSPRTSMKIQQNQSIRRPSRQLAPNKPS
Sequence of Serine/threonine-protein kinase pim-1 (P11309 whole entry): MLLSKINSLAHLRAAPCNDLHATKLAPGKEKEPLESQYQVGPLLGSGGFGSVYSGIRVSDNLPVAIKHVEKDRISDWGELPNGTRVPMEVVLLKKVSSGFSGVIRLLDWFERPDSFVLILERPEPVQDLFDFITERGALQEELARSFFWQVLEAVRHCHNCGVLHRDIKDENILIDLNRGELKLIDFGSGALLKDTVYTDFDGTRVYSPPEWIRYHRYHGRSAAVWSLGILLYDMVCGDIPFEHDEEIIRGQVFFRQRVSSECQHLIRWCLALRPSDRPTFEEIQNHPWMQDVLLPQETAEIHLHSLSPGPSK

With `CNC(=O)c1cc(-c2ccc3[nH]ncc3c2)on1`, the inhibitory constant (Ki) (in general, a dissociation constant, usually derived from enzyme kinetics or from competition with a known ligand) in assay [1] is 4.27 µM; in assay [2], above 3.75 µM; in assay [3], 0.402 µM; in assay [4], 3.68 µM; in assay [5], above 8.88 µM.
For the compound `CCCc1cn(-c2ccc3[nH]ncc3c2)nn1`, the inhibition constant Ki in assay [1] is 2.03 µM; in assay [6], 0.756 µM; in assay [2], above 3.75 µM; in assay [3], 0.108 µM; in assay [7] it was above 1.8 µM; in assay [4] it was 8.36 µM. The compound also yielded a Ki in assay [5] above 8.88 µM.
On to `COCc1cn(-c2ccc3[nH]ncc3c2)nn1`, for which the inhibitory constant (Ki) was above 5.45 µM in assay [1]; above 1.45 µM in assay [6]; above 3.75 µM in assay [2]; 0.635 µM in assay [3]; above 1.8 µM in assay [7]; above 8.57 µM in assay [4]. The same compound registered a Ki in assay [5] above 8.88 µM.
`OCCCc1cn(-c2ccc3[nH]ncc3c2)nn1`: the inhibitory constant (Ki) in assay [1] was 5.22 µM; in assay [6], 1.45 µM; in assay [2] it was above 3.75 µM; in assay [3] it was 0.23 µM; in assay [7], above 1.8 µM; in assay [4], above 8.57 µM. The compound further yielded a Ki in assay [5] above 8.88 µM.
As to `c1cc2[nH]ncc2cc1-n1cc(C2CC2)nn1`, the Ki in assay [1] is 3.47 µM; in assay [6], 1.45 µM; in assay [2], above 3.75 µM; in assay [3], 0.356 µM; in assay [7] it was above 1.8 µM; in assay [4], above 8.57 µM. This compound also returned a Ki in assay [5] above 8.88 µM.
With `c1cc2[nH]ncc2cc1-n1cc(C2CCCC2)nn1`, the inhibition constant (Ki) in assay [1] was 1.3 µM; in assay [6], 0.791 µM; in assay [2], above 3.75 µM; in assay [3], 0.044 µM; in assay [7], above 1.8 µM; in assay [4], above 8.57 µM. This compound showed a Ki in assay [5] above 8.88 µM.
With `c1cc2[nH]ncc2cc1-n1cc(CC2CCCCC2)nn1`, the Ki in assay [1] is 0.891 µM; in assay [6] it was 0.281 µM; in assay [2] it was above 3.75 µM; in assay [3] it was 0.1 µM; in assay [7], above 1.8 µM; in assay [4], above 8.57 µM. In assay [5], this compound registered a Ki above 8.88 µM.
`c1ccc(Cc2cn(-c3ccc4[nH]ncc4c3)nn2)cc1`: affinity in assay [1] was put at a Ki of 0.542 µM.
In the case of `c1ccc(CCc2cn(-c3ccc4[nH]ncc4c3)nn2)cc1`, the inhibition constant Ki in assay [1] was 0.446 µM; in assay [6], 0.898 µM; in assay [2], above 3.75 µM; in assay [3], 0.019 µM; in assay [7] it was above 1.8 µM; in assay [4], above 8.57 µM. The compound further gave a Ki in assay [5] above 8.88 µM.
Regarding `c1ccc(CCCc2cn(-c3ccc4[nH]ncc4c3)nn2)cc1`, the Ki in assay [1] was 0.528 µM; in assay [6], 0.644 µM; in assay [2], above 3.75 µM; in assay [3], 0.062 µM; in assay [7] it was above 1.8 µM; in assay [4] it was above 8.57 µM. Besides, in assay [5], the Ki is above 8.88 µM.
Regarding `c1cc2n[nH]cc2cc1-c1c[nH]nn1`, the Ki in assay [1] was 0.448 µM; in assay [6], 1.45 µM; in assay [2], 69.9 µM; in assay [3], 0.209 µM; in assay [4], 2.22 µM; in assay [5] it was 3.55 µM.
`Clc1ccccc1Cn1cc(-c2ccc3[nH]ncc3c2)nn1`: the Ki in assay [1] was 0.045 µM; in assay [6] it was above 1.45 µM; in assay [3], 0.097 µM; in assay [4], 4.15 µM.
Regarding `Clc1cccc(Cn2cc(-c3ccc4[nH]ncc4c3)nn2)c1`, the inhibition constant (Ki) in assay [1] was determined as 0.023 µM; in assay [6] it was 1.45 µM; in assay [3] it was 0.039 µM; in assay [5], 13.1 µM.
For the compound `Clc1ccc(Cn2cc(-c3ccc4[nH]ncc4c3)nn2)cc1`, the Ki in assay [1] was 0.197 µM; in assay [3], 0.068 µM; in assay [4], 37.8 µM; in assay [5], 2.71 µM.
As to `Fc1ccccc1Cn1cc(-c2ccc3[nH]ncc3c2)nn1`, the Ki is 0.091 µM in assay [1]; 13.1 µM in assay [2]; 0.285 µM in assay [3]; 10.2 µM in assay [4]; above 0.915 µM in assay [5].
Regarding `Fc1cccc(Cn2cc(-c3ccc4[nH]ncc4c3)nn2)c1`, the inhibition constant Ki was found to be 0.026 µM in assay [1], 0.18 µM in assay [3] and 12 µM in assay [4].
The corresponding values for `Fc1ccc(Cn2cc(-c3ccc4[nH]ncc4c3)nn2)cc1` are 0.07 µM, 0.285 µM and 165 µM.
`Cc1cccc(Cn2cc(-c3ccc4[nH]ncc4c3)nn2)c1`: the figures for the inhibition constant Ki in assay [1], in assay [3] and in assay [5] were 0.07 µM, 0.375 µM and above 0.915 µM, respectively.
Take `Clc1cccc(Cn2cc(-c3ccc4[nH]ncc4c3)nn2)c1Cl`: the inhibitory constant (Ki) in assay [1] was 0.048 µM; in assay [2], 67.6 µM; in assay [3], 0.015 µM; in assay [4], 20.3 µM.
Consider `Clc1ccc(Cl)c(Cn2cc(-c3ccc4[nH]ncc4c3)nn2)c1`, for which the Ki in assay [1] was 0.016 µM; in assay [3] it was 0.018 µM; in assay [4] it was 36 µM; in assay [5], 127 µM.
Take `Clc1cc(Cl)cc(Cn2cc(-c3ccc4[nH]ncc4c3)nn2)c1`: the Ki in assay [1] is 0.028 µM; in assay [3] it was 0.041 µM; in assay [4], 41.5 µM; in assay [5], above 0.915 µM.
On to `Nc1n[nH]c2ccc(-c3cc(Cc4ccccc4)no3)cc12`, for which the Ki in assay [1] came to 0.45 µM; in assay [6] it was 0.016 µM; in assay [2], 3.59 µM; in assay [3] it was 0.016 µM; in assay [4], 5.16 µM; in assay [5], 3.29 µM.
The compound `CCCc1cc(-c2ccc3[nH]ncc3c2)on1` gave a Ki in assay [1] of 2.53 µM.
For `c1cc2[nH]ncc2cc1-c1cc(CN2CCCCC2)no1`, the Ki in assay [1] was 3.81 µM; in assay [6], above 1.45 µM.

For the origin of these results see ChEMBL document CHEMBL1681644, “Scaffold oriented synthesis. Part 3: design, synthesis and biological evaluation of novel 5-substituted indazoles as potent and selective kinase inhibitors employing [2+3] cycloadditions” (Bioorg Med Chem Lett, 2011).
